Source: patent US5488106A
Entries after “also recorded” stand apart in the source; their conditions may differ. Counter-ions that a name gives are not always drawn. Like-named read-outs stand apart in the source and are kept apart here. Values belong to the molecule of their own block, whether it stands above or below them.

What was measured:
[1] = molecular target: β-lactamase Tal 3636 CcrA (Bacteroides fragilis, UniProt P25910); experiment: biochemical; format: biochemical
Description: Representative compounds of the present invention are also tested to determine inhibition of an isolated metallo enzyme Group 3, the β-lactamase Tal 3636 CcrA. […] In the CI assay, enzyme is added last to a mixture of inhibitor and buffer. In the TDI assay, nitrocefin is added last to a mixture of enzyme and inhibitor that had been incubating for approximately 7 minutes.

TEM-2 (Bd Spectrum) = TEM-2 (Bd Spectrum) (Escherichia coli, UniProt P62593, Q37K); format: biochemical; conditions: Table III
[2] = test system: E. coli strains containing β-lactamases; experiment: Microbiological testing with piperacillin, β-lactamase-containing strains (summary in words); conditions: β-lactamase-producing strains
P99 (Cephase) = P99 (Cephase) (Enterobacter cloacae, UniProt P05364); experiment: Spectrophotometric inhibition with 10 minute preincubation, nitrocefin substrate; format: biochemical; conditions: for IC50: 10 minute preincubation, 25° C.
CcrA (Metallo) = CcrA (Metallo) (Bacteroides fragilis, UniProt P25910); experiment: as above; format: biochemical; conditions: for IC50: 10 minute preincubation, 25° C.
metallo-β-lactamase = metallo-β-lactamase (Bacteroides fragilis, UniProt P25910); experiment: Long term inactivation of the metallo-β-lactamase, residual activity on nitrocefin; format: biochemical; conditions: for remaining activity at 8 µM: 42 s, 8 μM inhibitor, after 0.7 minutes, read-out: control activity of metallo-β-lactamase remaining
Description: To test for long term inactivation of the metallo-β-lactamase, the inhibitors are mixed with enzyme and incubated overnight. Enzyme activity is tested for at periodic intervals by diluting the enzyme-inhibitor mixture into nitrocefin and comparing the enzymatic activity against that of an enzyme incubated only in assay broth. […].

PC1 (Penase) = PC1 (Penase) (Staphylococcus aureus, UniProt P00807); experiment: Spectrophotometric inhibition with 10 minute preincubation, nitrocefin substrate; format: biochemical
E. coli 300 = experiment: MIC of piperacillin, broth serial two-fold dilutions, alone or 1:1 with inhibitor; conditions: piperacillin alone
E. cloacae + P99 = experiment: as above; conditions: piperacillin alone
[3] = test system: E. coli 300 + P99 (cephase); experiment: as above; conditions: piperacillin alone
[4] = test system: E. coli 300 + CcrA (metallo-enzyme); experiment: as above; conditions: piperacillin alone
E. coli + TEM-1 = experiment: as above; conditions: piperacillin alone
[5] = CI: enzyme added last, 0.010M HEPES, pH 7.4, nitrocefin 100 μg/ml, read-out: IC50 CI HEPES
[6] = CI: enzyme added last, 0.05M phosphate buffer, pH 7.0, nitrocefin 100 μg/ml, read-out: IC50 CI PHOSPHATE
[7] = TDI: approximately 7 minutes incubation, nitrocefin added last, 0.010M HEPES, pH 7.4, read-out: IC50 TDI HEPES
[8] = TDI: approximately 7 minutes incubation, nitrocefin added last, 0.05M phosphate buffer, pH 7.0, read-out: IC50 TDI PHOSPHATE
[9] = TDI: approximately 7 minutes incubation, nitrocefin added last, 0.010M HEPES, pH 7.4, 7 min, read-out: IC50 TDI HEPES
[10] = TDI: approximately 7 minutes incubation, nitrocefin added last, 0.05M phosphate buffer, pH 7.0, 7 min, read-out: IC50 TDI PHOSPHATE
[11] = 10 minute preincubation, 25° C., read-out: IC50 PC1 (Penase)

- IC50 [1, 5]: > 250 µM
- IC50 [1, 6]: > 250 µM
- IC50 [1, 7]: 77 µM
- IC50 [1, 8]: 120 µM
Compound: CCC1=NOC(CC2C(=O)N3C(C(=O)O)C(C)(C)S(=O)(=O)C23)C1 (single isomer, unassigned) [Example 12]

- IC50 [1, 5]: 48 µM
- IC50 [1, 6]: 33 µM
- IC50 [1, 7]: 3.5 µM
- IC50 [1, 8]: 9.6 µM
Compound: CC1(C)[C@H](C(=O)O)N2C(=O)[C@@H](CC3CC(c4ccsc4)=NO3)[C@H]2S1(=O)=O (single isomer, unassigned) [Example 14, 4-Thia-1-azabicyclo[3.2.0.]heptane-2-carboxylic acid, 6-[[4,5-dihydro-3-(3-thienyl)-5-isoxazolyl]methyl]-3,3-dimethyl-7-oxo-, 4,4-dioxide, sodium salt, [2S-[2α, 5α, 6β(R* or S*)]]-]

- IC50 [1, 5]: 18 µM
- IC50 [1, 6]: 48 µM
- IC50 [1, 7]: 2.4 µM
- IC50 [1, 8]: 6 µM
Compound: CC1(C)[C@H](C(=O)O)N2C(=O)[C@@H](CC3CC(Br)=NO3)[C@H]2S1(=O)=O (single isomer, unassigned) [Example 16, 4-Thia-1-azabicyclo[3.2.0]heptane-2-carboxylic acid, 6-[(3-bromo-4,5-dihydro-5-isoxazolyl)methyl]-3,3-dimethyl-7-oxo-, 4,4-dioxide, sodium salt, [2S-[2α,5α,6β(R* or S*)]]-]

Compound: Cc1ccc(C2=NOC(C[C@@H]3C(=O)N4[C@@H](C(=O)O)C(C)(C)S(=O)(=O)[C@H]34)C2)cc1 (stereo partly drawn) [Example 4, 4-Thia-1-azabicyclo[3.2.0]heptane-2-carboxylic acid, 6-[[4,5-dihydro-3-(4-methylphenyl)-5-isoxazolyl]-methyl]-3,3-dimethyl-7-oxo-, sodium salt, 4,4-dioxide, [2R-[2α,5α,6β(R*)]]-]
- Inhibition of 2b broad spectrum β-lactamase (in words) (TEM-2 (Bd Spectrum)): inhibited about equally
- IC50 [1, 5]: 9.7 µM
- IC50 [1, 6]: 16 µM
- IC50 [1, 9]: 1.3 µM
- IC50 [1, 10]: 2 µM
- Microbiological activity / effect on MICs of piperacillin (in words) [2]: lowers the MICs for all the β-lactamases-producing strains; also recorded: more potent in vitro activity against the P99 cephase than the product of Example 10
- IC50 (P99 (Cephase)): 2.8 nM
- Inhibition of P99 Group 1 cephalosporinase (in words) (P99 (Cephase); Table III): very potent inhibitor of the P99 Group 1 cephalosporinase
- IC50 (CcrA (Metallo)): 0.65 µM
- Inhibition of Group 3 metallo-β-lactamases (in words) (CcrA (Metallo); Table III): inhibited about equally
- remaining activity at 8 µM (metallo-β-lactamase): 44%
- metalloenzyme activity recovered (metallo-β-lactamase; after overnight incubation): 71%
- IC50 (PC1 (Penase); [11]): 720 nM
- Inhibition of PC1 Group 2a penicillinase (in words) (PC1 (Penase); Table III): inhibited about equally

Compound: Cc1ccc(C2=NOC(C[C@@H]3C(=O)N4[C@@H](C(=O)O)C(C)(C)S(=O)(=O)[C@H]34)C2)cc1 (stereo partly drawn) [Example 5, 4-Thia-1-azabicyclo[3.2.0.]heptane-2-carboxylic acid, 6-[[4,5-dihydro-3-(4-methylphenyl)-5-isoxazolyl]methyl]-3,3-dimethyl-7-oxo-, sodium salt, 4,4-dioxide, [2R-[2α,5α,6β(S*)]]-]
- IC50 [1, 5]: 27 µM
- IC50 [1, 6]: 68 µM
- IC50 [1, 9]: 2 µM
- IC50 [1, 10]: 6.9 µM

Compound: CC(=O)OC(C1CC(c2ccc(C)cc2)=NO1)[C@@H]1C(=O)N2[C@@H](C(=O)O)C(C)(C)S(=O)(=O)[C@H]12 (stereo partly drawn) [Example 10, 4-Thia-1-azabicyclo[3.2,0]heptane-2-carboxylic acid, 6-[(acetyloxy)[4,5-dihydro-3-(4-methylphenyl)-5-isoxazolyl]methyl]-3,3-dimethyl-7-oxo-, sodium salt, 4,4-dioxide, [2S-(2α, 5α, 6β)]-]
- IC50 [1, 5]: 100 µM
- IC50 [1, 6]: 210 µM
- IC50 [1, 7]: 3.9 µM
- IC50 [1, 8]: 3.2 µM
- Microbiological activity / effect on MICs of piperacillin (in words) [2]: lowers the MICs of piperacillin for all the E. coli strains containing β-lactamases
- IC50 (P99 (Cephase)): 2400 nM
- IC50 (CcrA (Metallo)): 16 µM
- remaining activity at 8 µM (metallo-β-lactamase): 45%
- enzyme activity lost (metallo-β-lactamase; after overnight incubation): > 99%
- IC50 (PC1 (Penase); [11]): 8000 nM

Compound: CCN1CCN(C(=O)N[C@@H](C(=O)N[C@@H]2C(=O)N3[C@@H]2SC(C)(C)[C@@H]3C(=O)O)c2ccccc2)C(=O)C1=O [Piperacillin, piperacillin]
- Minimum Inhibitory Concentration of Piperacillin (E. coli 300): 1 µg/mL
- Microbiological activity / effect on MICs of piperacillin (in words) [2]: decreased microbiological activity (increased MICs) in E. coli strains that had β-lactamases introduced into them
- Minimum Inhibitory Concentration of Piperacillin (E. cloacae + P99): 128 µg/mL
- Minimum Inhibitory Concentration of Piperacillin [3]: 16 µg/mL
- Minimum Inhibitory Concentration of Piperacillin [4]: 4 µg/mL
- Minimum Inhibitory Concentration of Piperacillin (E. coli + TEM-1): > 1024 µg/mL

Compound: CC1(C)[C@H](C(=O)O)N2C(=O)C[C@H]2S1(=O)=O [Sulbactam, sulbactam, reference compound]
- IC50 (PC1 (Penase)): 80 nM

Compound: C[C@]1(Cn2ccnn2)[C@H](C(=O)O)N2C(=O)C[C@H]2S1(=O)=O [Tazobactam, tazobactam, reference compound]
- IC50 (PC1 (Penase)): 32 nM
